Source: US8192962B2, “Processes for detecting toxic substances” (Daikin Industries, Ltd., priority 2001, dated 2012)

Test system: Unknown protein yeast genes
Assay: DNA chip mRNA expression in yeast, unknown protein yeast genes (Table 1)
Format: cell-based, Saccharomyces cerevisiae S288C
In short: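 Value is the scanned fluorescence intensity ratio of exposed versus chemical-free cells. Log-phase S288C yeast in YPD at 25° C. received one toxic substance for two hours, dosed to slow growth without killing; Cy3/Cy5-labeled cDNA from oligo-dT-purified mRNA was hybridized to a whole-genome chip at 65° C.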

For Na2As [(1)], the “The level of expressed mRNA in the presence of chemical substance/The level of expressed mRNA in the absence of chemical substance” value (yeast gene YAL053W, incubated two hours with chemical substance) was 0.9, the “The level of expressed mRNA in the presence of chemical substance/The level of expressed mRNA in the absence of chemical substance” value (yeast gene YBL048W) was 2.0 and the “The level of expressed mRNA in the presence of chemical substance/The level of expressed mRNA in the absence of chemical substance” value (yeast gene YBL107C) was 1.4. The “The level of expressed mRNA in the presence of chemical substance/The level of expressed mRNA in the absence of chemical substance” value (yeast gene YDL072C, incubated two hours with chemical substance) was 1.3, the “The level of expressed mRNA in the presence of chemical substance/The level of expressed mRNA in the absence of chemical substance” value (yeast gene YDL204W, incubated two hours with chemical substance) was 1.4 and the “The level of expressed mRNA in the presence of chemical substance/The level of expressed mRNA in the absence of chemical substance” value (yeast gene YDL222C, incubated two hours with chemical substance) was 0.9. For the same substance, the “The level of expressed mRNA in the presence of chemical substance/The level of expressed mRNA in the absence of chemical substance” value (yeast gene YDR330W, incubated two hours with chemical substance) was 0.8, the “The level of expressed mRNA in the presence of chemical substance/The level of expressed mRNA in the absence of chemical substance” value (yeast gene YDR411C, incubated two hours with chemical substance) was 0.9 and the “The level of expressed mRNA in the presence of chemical substance/The level of expressed mRNA in the absence of chemical substance” value (yeast gene YDR511W, incubated two hours with chemical substance) was 1.3. The “The level of expressed mRNA in the presence of chemical substance/The level of expressed mRNA in the absence of chemical substance” value (yeast gene YDR545W, incubated two hours with chemical substance) was 0.6, the “The level of expressed mRNA in the presence of chemical substance/The level of expressed mRNA in the absence of chemical substance” value (yeast gene YEL001C, incubated two hours with chemical substance) was 1.0 and the “The level of expressed mRNA in the presence of chemical substance/The level of expressed mRNA in the absence of chemical substance” value (yeast gene YER004W, incubated two hours with chemical substance) was 1.0. The “The level of expressed mRNA in the presence of chemical substance/The level of expressed mRNA in the absence of chemical substance” value (yeast gene YER035W, incubated two hours with chemical substance) was 1.4, the “The level of expressed mRNA in the presence of chemical substance/The level of expressed mRNA in the absence of chemical substance” value (yeast gene YER079W, incubated two hours with chemical substance) was 1.1 and the “The level of expressed mRNA in the presence of chemical substance/The level of expressed mRNA in the absence of chemical substance” value (yeast gene YER106W, incubated two hours with chemical substance) was 1.3. The “The level of expressed mRNA in the presence of chemical substance/The level of expressed mRNA in the absence of chemical substance” value (yeast gene YER158C, incubated two hours with chemical substance) was 1.2, the “The level of expressed mRNA in the presence of chemical substance/The level of expressed mRNA in the absence of chemical substance” value (yeast gene YER163C, incubated two hours with chemical substance) was 1.1 and the “The level of expressed mRNA in the presence of chemical substance/The level of expressed mRNA in the absence of chemical substance” value (yeast gene YER175C, incubated two hours with chemical substance) was 0.9. For the same substance, the “The level of expressed mRNA in the presence of chemical substance/The level of expressed mRNA in the absence of chemical substance” value (yeast gene YFL006W, incubated two hours with chemical substance) was 0.8, the “The level of expressed mRNA in the presence of chemical substance/The level of expressed mRNA in the absence of chemical substance” value (yeast gene YFL010C, incubated two hours with chemical substance) was 1.0 and the “The level of expressed mRNA in the presence of chemical substance/The level of expressed mRNA in the absence of chemical substance” value (yeast gene YFL024C) was 1.0. For the same substance, the “The level of expressed mRNA in the presence of chemical substance/The level of expressed mRNA in the absence of chemical substance” value (yeast gene YFL032W, incubated two hours with chemical substance) was 0.4, the “The level of expressed mRNA in the presence of chemical substance/The level of expressed mRNA in the absence of chemical substance” value (yeast gene YGL037C, incubated two hours with chemical substance) was 1.5 and the “The level of expressed mRNA in the presence of chemical substance/The level of expressed mRNA in the absence of chemical substance” value (yeast gene YGL047W, incubated two hours with chemical substance) was 1.0. For the same substance, the “The level of expressed mRNA in the presence of chemical substance/The level of expressed mRNA in the absence of chemical substance” value (yeast gene YGL053W, incubated two hours with chemical substance) was 1.5, the “The level of expressed mRNA in the presence of chemical substance/The level of expressed mRNA in the absence of chemical substance” value (yeast gene YGL121C) was 2.6 and the “The level of expressed mRNA in the presence of chemical substance/The level of expressed mRNA in the absence of chemical substance” value (yeast gene YGL199C, incubated two hours with chemical substance) was 1.1. The “The level of expressed mRNA in the presence of chemical substance/The level of expressed mRNA in the absence of chemical substance” value (yeast gene YGR101W, incubated two hours with chemical substance) was 1.0, the “The level of expressed mRNA in the presence of chemical substance/The level of expressed mRNA in the absence of chemical substance” value (yeast gene YGR110W) was 1.6 and the “The level of expressed mRNA in the presence of chemical substance/The level of expressed mRNA in the absence of chemical substance” value (yeast gene YGR130C, incubated two hours with chemical substance) was 0.9. The “The level of expressed mRNA in the presence of chemical substance/The level of expressed mRNA in the absence of chemical substance” value (yeast gene YGR154C, incubated two hours with chemical substance) was 1.8, the “The level of expressed mRNA in the presence of chemical substance/The level of expressed mRNA in the absence of chemical substance” value (yeast gene YGR221C, incubated two hours with chemical substance) was 0.9 and the “The level of expressed mRNA in the presence of chemical substance/The level of expressed mRNA in the absence of chemical substance” value (yeast gene YHR138C, incubated two hours with chemical substance) was 2.8. For the same substance, the “The level of expressed mRNA in the presence of chemical substance/The level of expressed mRNA in the absence of chemical substance” value (yeast gene YHR199C, incubated two hours with chemical substance) was 1.9, the “The level of expressed mRNA in the presence of chemical substance/The level of expressed mRNA in the absence of chemical substance” value (yeast gene YIL023C, incubated two hours with chemical substance) was 1.1 and the “The level of expressed mRNA in the presence of chemical substance/The level of expressed mRNA in the absence of chemical substance” value (yeast gene YIL041W, incubated two hours with chemical substance) was 1.0. For the same substance, the “The level of expressed mRNA in the presence of chemical substance/The level of expressed mRNA in the absence of chemical substance” value (yeast gene YIL087C, incubated two hours with chemical substance) was 1.3, the “The level of expressed mRNA in the presence of chemical substance/The level of expressed mRNA in the absence of chemical substance” value (yeast gene YJL057C, incubated two hours with chemical substance) was 1.5 and the “The level of expressed mRNA in the presence of chemical substance/The level of expressed mRNA in the absence of chemical substance” value (yeast gene YJL066C, incubated two hours with chemical substance) was 0.9. For the same substance, the “The level of expressed mRNA in the presence of chemical substance/The level of expressed mRNA in the absence of chemical substance” value (yeast gene YJL082W, incubated two hours with chemical substance) was 1.4, the “The level of expressed mRNA in the presence of chemical substance/The level of expressed mRNA in the absence of chemical substance” value (yeast gene YJL151C, incubated two hours with chemical substance) was 1.0 and the “The level of expressed mRNA in the presence of chemical substance/The level of expressed mRNA in the absence of chemical substance” value (yeast gene YJL152W, incubated two hours with chemical substance) was 0.9. For the same substance, the “The level of expressed mRNA in the presence of chemical substance/The level of expressed mRNA in the absence of chemical substance” value (yeast gene YJL161W, incubated two hours with chemical substance) was 1.7, the “The level of expressed mRNA in the presence of chemical substance/The level of expressed mRNA in the absence of chemical substance” value (yeast gene YJL171C, incubated two hours with chemical substance) was 2.3 and the “The level of expressed mRNA in the presence of chemical substance/The level of expressed mRNA in the absence of chemical substance” value (yeast gene YJR008W, incubated two hours with chemical substance) was 1.6. The “The level of expressed mRNA in the presence of chemical substance/The level of expressed mRNA in the absence of chemical substance” value (yeast gene YJR054W, incubated two hours with chemical substance) was 0.8, the “The level of expressed mRNA in the presence of chemical substance/The level of expressed mRNA in the absence of chemical substance” value (yeast gene YKL071W) was 8.3 and the “The level of expressed mRNA in the presence of chemical substance/The level of expressed mRNA in the absence of chemical substance” value (yeast gene YKL086W, incubated two hours with chemical substance) was 1.0. The “The level of expressed mRNA in the presence of chemical substance/The level of expressed mRNA in the absence of chemical substance” value (yeast gene YKL151C, incubated two hours with chemical substance) was 1.2 and the “The level of expressed mRNA in the presence of chemical substance/The level of expressed mRNA in the absence of chemical substance” value (yeast gene YKL153W, incubated two hours with chemical substance) was 1.1.
